Test results reported in US7709516B2, “Helix 12 directed non-steroidal antiandrogens” (Endorecherche, Inc., priority 2005, dated 2010).
Where two headings read alike, the source gives them in different places.

How the values were obtained:
[1] = test system: Shionogi mouse mammary carcinoma cells; experiment: Androgenic/antiandrogenic activity: inhibition of DHT-stimulated Shionogi cell number; assay type: cell-based; conditions: DHT-stimulated Shionogi cell number; for IC50: Mus musculus
Human Androgen Receptor = molecular target: T1, Human Androgen Receptor (Homo sapiens, UniProt P10275); experiment: Androgen receptor binding assay ([3H]R1881, HAP) in cytosol of HEK-293 cells transfected with hAR; conditions: relative to R1881 = 100, transfected cells
T1 sequence (P10275 1-920): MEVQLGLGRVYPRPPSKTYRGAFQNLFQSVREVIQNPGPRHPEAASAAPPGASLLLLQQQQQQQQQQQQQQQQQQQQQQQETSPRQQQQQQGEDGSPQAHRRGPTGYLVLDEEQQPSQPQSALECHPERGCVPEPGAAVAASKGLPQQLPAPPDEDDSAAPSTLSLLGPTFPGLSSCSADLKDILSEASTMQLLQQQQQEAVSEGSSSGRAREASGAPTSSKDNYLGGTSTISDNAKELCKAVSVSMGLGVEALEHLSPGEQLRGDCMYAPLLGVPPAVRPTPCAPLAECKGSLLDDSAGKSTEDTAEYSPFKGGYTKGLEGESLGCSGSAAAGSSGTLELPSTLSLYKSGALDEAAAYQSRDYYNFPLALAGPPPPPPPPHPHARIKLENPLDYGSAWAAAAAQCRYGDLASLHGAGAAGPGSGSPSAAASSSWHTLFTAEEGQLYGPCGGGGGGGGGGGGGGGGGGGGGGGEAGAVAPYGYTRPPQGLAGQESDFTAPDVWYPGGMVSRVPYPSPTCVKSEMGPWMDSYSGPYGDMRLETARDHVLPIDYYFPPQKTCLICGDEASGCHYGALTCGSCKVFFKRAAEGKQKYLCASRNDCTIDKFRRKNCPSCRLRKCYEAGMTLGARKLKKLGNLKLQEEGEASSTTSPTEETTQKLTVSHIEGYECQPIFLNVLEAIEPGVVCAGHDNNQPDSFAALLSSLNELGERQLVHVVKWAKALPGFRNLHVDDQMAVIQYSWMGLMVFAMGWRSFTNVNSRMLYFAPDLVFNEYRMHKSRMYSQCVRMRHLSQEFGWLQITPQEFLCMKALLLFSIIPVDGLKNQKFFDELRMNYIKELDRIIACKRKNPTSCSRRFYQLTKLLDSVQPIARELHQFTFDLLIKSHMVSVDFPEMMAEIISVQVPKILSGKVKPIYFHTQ

[2] = test system: rat prostate, seminal vesicle, levator ani muscle; experiment: Systemic antiandrogenic activity in orchidectomized immature male rats with DHT implant; assay type: in vivo; conditions: Rattus norvegicus, 168 h, rat +DHT, 0.5 mg/animal daily 7 days
[3] = read-out: Shionogi Antiandrogenic Activity IC50, Table 1
[4] = Prostate cell, po, read-out: Lev Ani % inhibition, Table 1, p.o, levator ani
[5] = Prostate cell, po, read-out: SV % inhibition, Table 1, p.o, seminal vesicle
[6] = po, read-out: Prostate % inhibition, Table 1, p.o
[7] = read-out: Shionogi Antiandrogenic Activity IC50, Table 2
[8] = read-out: Lev Ani % inhibition, Table 2, s.c. or p.o. (route not marked), levator ani
[9] = read-out: Prostate % inhibition, Table 2, s.c. or p.o. (route not marked)
[10] = read-out: SV % inhibition, Table 2, s.c. or p.o. (route not marked), seminal vesicle

Row | Compound | IC50 [1, 3] | Human Androgen Receptor Binding (%) RBA R1881 = 100 (Human Androgen Receptor; Table 1) | inhibition in vivo at 0.5 mg [2, 4] | inhibition in vivo at 0.5 mg [2, 5] | inhibition in vivo at 0.5 mg [2, 6] | IC50 [1, 7] | Human Androgen Receptor Binding (%) RBA R1881 = 100 (Human Androgen Receptor; Table 2) | inhibition in vivo at 0.5 mg [2, 8] | inhibition in vivo at 0.5 mg [2, 9] | inhibition in vivo at 0.5 mg [2, 10] | Shionogi Antiandrogenic Activity IC50 ([1]; Table 1)
1 | CC(=O)Nc1ccc(OCCCN2C(=S)N(c3ccc(C#N)c(C(F)(F)F)c3)C(=O)C2(C)C)cc1 [EM-8101] | 18.2 nM | 12.1% | 43% | 41% | 8% | – | – | – | – | – | –
2 | CC1(C)C(=O)N(c2ccc(C#N)c(C(F)(F)F)c2)C(=S)N1CCCOc1ccc(S(=O)(=O)N2CCCC2)cc1 [EM-8103] | 41.5 nM | 29.3% | 16% | 37% | 18% | – | – | – | – | – | –
3 | N#Cc1ccc(N2CCC(O)(CCOc3ccc(S(=O)(=O)N4CCCC4)cc3)CC2)cc1C(F)(F)F [EM-8130] | – | – | – | – | – | 28.3 nM | 4.5% | 8% | 15% | 20% | –
4 | CC(C)S(=O)(=O)c1ccc(OCCCN2C(=S)N(c3ccc(C#N)c(C(F)(F)F)c3)C(=O)C2(C)C)cc1 [EM-8131] | 9.1 nM | 9.3% | 47% | 84% | 47% | – | – | – | – | – | –
5 | CC(C)Sc1ccc(OCCCN2C(=S)N(c3ccc(C#N)c(C(F)(F)F)c3)C(=O)C2(C)C)cc1 [EM-8132] | 24 nM | 1.0% | 67% | 86% | 47% | – | – | – | – | – | –
6 | CC1(C)C(=O)N(c2ccc(C#N)c(C(F)(F)F)c2)C(=S)N1CCCOc1ccc2c(c1)OCC2=O [EM-8154] | 17.1 nM | 72.4% | 41% | 42% | 11% | – | – | – | – | – | –
7 | CC1(C)C(=O)N(c2ccc(C#N)c(C(F)(F)F)c2)C(=S)N1CCCOc1ccc(C(N)=O)cc1 [EM-8156] | 7.9 nM | 17.5% | 47% | 65% | 32% | – | – | – | – | – | –
8 | COC1(CCOc2ccc(CN3CCCC3)cc2C)CCN(c2ccc(C#N)c(C(F)(F)F)c2)CC1 [EM-8157] | – | – | – | – | – | 54.3 nM | <1.0% | 28% | 25% | 56% | –
9 | CC1(C)C(=O)N(c2ccc(C#N)c(C(F)(F)F)c2)C(=S)N1CCCOc1ccc2oc(=O)ccc2c1 [EM-8158] | 3.5 nM | 88.8% | 32% | 70% | 38% | – | – | – | – | – | –
10 | CS(=O)(=O)c1ccc(OCCC2(O)CCN(c3ccc(C#N)c(C(F)(F)F)c3)CC2)cc1 [EM-8159] | – | – | – | – | – | 33.4 nM | <1.0% | 23% | 24% | 51% | –
11 | CCS(=O)(=O)c1ccc(OCCCN2C(=S)N(c3ccc(C#N)c(C(F)(F)F)c3)C(=O)C2(C)C)cc1 [EM-8188] | 13.9 nM | 15.6% | 68% | 85% | 45% | – | – | – | – | – | –
12 | CCCS(=O)(=O)c1ccc(OCCCN2C(=S)N(c3ccc(C#N)c(C(F)(F)F)c3)C(=O)C2(C)C)cc1 [EM-8225] | 22.4 nM | 25.8% | 53% | 79% | 45% | – | – | – | – | – | –
13 | CC(C)S(=O)(=O)c1ccc(OCCC2(O)CCN(c3ccc(C#N)c(C(F)(F)F)c3)CC2)cc1 [EM-8228] | – | – | – | – | – | 45.1 nM | <1.0% | 55% | 32% | 0% | –
14 | CCCS(=O)(=O)c1ccc(OCCC2(O)CCN(c3ccc(C#N)c(C(F)(F)F)c3)CC2)cc1 [EM-8229] | – | – | – | – | – | 49.8 nM | <1.0% | 16% | 3% | 19% | –
15 | CCS(=O)(=O)c1ccc(OCCC2(O)CCN(c3ccc(C#N)c(C(F)(F)F)c3)CC2)cc1 [EM-8230] | – | – | – | – | – | 75.9 nM | <1.0% | 35% | 0% | 23% | –
16 | Cc1cc(=O)oc2ccc(OCCCN3C(=S)N(c4ccc(C#N)c(C(F)(F)F)c4)C(=O)C3(C)C)cc12 [EM-8259] | 13.6 nM | 39.6% | 53% | 53% | 31% | – | – | – | – | – | –
17 | N#Cc1ccc(N2CCC(O)(CCOc3ccc4oc(=O)ccc4c3)CC2)cc1C(F)(F)F [EM-8284] | – | – | – | – | – | 12.8 nM | <1.0% | 21% | 0% | 0% | –
18 | Cc1cc(=O)oc2ccc(OCCC3(O)CCN(c4ccc(C#N)c(C(F)(F)F)c4)CC3)cc12 [EM-8285] | – | – | – | – | – | 18.3 nM | <1.0% | 0% | 0% | 0% | –
19 | Cc1cc(=O)oc2cc(OCCCN3C(=S)N(c4ccc(C#N)c(C(F)(F)F)c4)C(=O)C3(C)C)ccc12 [EM-8329] | 9.1 nM | 170.0% | 17% | 58% | 42% | – | – | – | – | – | –
20 | CC1(C)C(=O)N(c2ccc(C#N)c(C(F)(F)F)c2)C(=S)N1CCCOc1ccc(SC(F)(F)F)cc1 [EM-8342] | 66.7 nM | 0.5% | 53% | 79% | 43% | – | – | – | – | – | –
21 | CC1(C)C(=O)N(c2ccc(C#N)c(C(F)(F)F)c2)C(=S)N1CCCOc1ccc(CN2CCSCC2)cc1 [EM-8344] | 12.6 nM | 161.6% | 51% | 77% | 50% | – | – | – | – | – | –
22 | CC1(C)C(=O)N(c2ccc(C#N)c(Cl)c2)C(=S)N1CCCOc1ccc(S(C)(=O)=O)cc1 [EM-8360] | 7.1 nM | 18.1% | 82% | 88% | 56% | – | – | – | – | – | –
23 | Cc1cc2c(C)c(C)c(=O)oc2cc1OCCCN1C(=S)N(c2ccc(C#N)c(C(F)(F)F)c2)C(=O)C1(C)C [EM-8385] | – | 50.5% | 20% | 41% | 17% | – | – | – | – | – | Partial agonist
24 | CC1(C)C(=O)N(c2ccc(C#N)c(C(F)(F)F)c2)C(=S)N1CCCOc1ccc2c(C(F)(F)F)cc(=O)oc2c1 [EM-8393] | 44.5 nM | 7.7% | 35% | 60% | 3% | – | – | – | – | – | –
